Experimental data taken from patent US11147272B2, “Pyridone compounds and agricultural and horticultural fungicides comprising the same as active ingredients” (MITSUI CHEMICALS AGRO, INC., priority 2017, dated 2021).

Tests used:
[1] = tested on: Plasmopara viticola; assay: Test Example G: Downy mildew on vine; conditions: for Test G control value class: Downy mildew on vine (Neomuscat), 2.5 ml/pot, assessed 7 to 10 days after inoculation; for Test G control value: 7 to 10 days after inoculation; for pest or weed control at 250 ppm: Plasmopara viticola, topical, read-out: Test G control value class
[2] = tested on: Alternaia brassicicola; assay: Test Example C: Alternaria sooty spot on cabbage; format: in vivo; conditions: for Test C control value class / pest or weed control at 250 µg/mL: class of control value; for pest or weed control at 250 µg/mL: Brassica oleracea, topical, read-out: Test C control value class
Text: Seeds of a test plant (cabbage variety: Shikidori) were planted and cultivated until the cotyledons extended.
<Control Value> Control value=100{1−(n/3)}

[3] = tested on: Blumeria graminis f. sp. hordei; assay: Test Example D: Powdery mildew on barley; conditions: for Test D control value class: class of control value; for pest or weed control at 250 µg/mL: Blumeria graminis, in Hordeum vulgare, topical, read-out: Test D control value class
[4] = tested on: Botrytis cinerea; assay: Test Example B: Gray mold on tomato; conditions: for Test B control value class: class of control value; for pest or weed control at 250 µg/mL: Botrytis cinerea, in Solanum lycopersicum, topical, read-out: Test B control value class
[5] = tested on: Phytophthora infestans; assay: whole plant or invertebrate; format: in vivo; conditions: for Test F control value class: class of control value; for pest or weed control at 250 µg/mL: Phytophthora infestans, in Solanum lycopersicum, topical, read-out: Test F control value class
[6] = tested on: Magnaporthe grisea; assay: whole plant or invertebrate; format: in vivo; conditions: for Test A control value class: class of control value; for pest or weed control at 250 µg/mL: Pyricularia oryzae, in Oryza sativa, read-out: Test A control value class
[7] = tested on: Puccinia recondita; assay: Test Example E: Brown rust on wheat; format: in vivo; conditions: for Test E control value class / pest or weed control at 250 µg/mL: class of control value; for pest or weed control at 250 µg/mL: Puccinia recondita, topical, read-out: Test E control value class
[8] = tested on: Colletotrichum orbiculare; assay: Test Example H: Anthracnose on cucumber; conditions: for Test H control value class: Anthracnose on cucumber (Sagami Hanjiro), 2.5 ml/pot, assessed 6 to 10 days after inoculation; for Test H control value: 6 to 10 days after inoculation; for pest or weed control at 250 ppm: Colletotrichum orbiculare, in Cucumis sativus, topical, read-out: Test H control value class
[9] = Alternaria sooty spot on cabbage
[10] = 250 ppm drug solution sprayed on test plant

Compound | Test G control value class ([1]; 250 ppm spray) | Test C control value class [2, 9] | Test D control value class ([3]; Powdery mildew on barley) | Test B control value class ([4]; Gray mold on tomato) | Test F control value class ([5]; Late blight on tomato) | Test A control value class ([6]; Blast on rice) | Test E control value class ([7]; Brown rust on wheat) | Test H control value class ([8]; 250 ppm spray) | pest or weed control at 250 ppm [1] [%] | pest or weed control at 250 µg/mL [2, 9] [%] | pest or weed control at 250 µg/mL [3] [%] | pest or weed control at 250 µg/mL [4] [%] | pest or weed control at 250 µg/mL [5] [%] | pest or weed control at 250 µg/mL [6] [%] | pest or weed control at 250 µg/mL ([7]; Brown rust on wheat) [%] | pest or weed control at 250 ppm [8] [%] | other results
CCn1c(-c2c(F)cc(OC)cc2F)c(C(C)C(C)C)cc(Cl)c1=O (racemic) [compound 171] | H (more than 50% control value) | H (more than 50% control value) | H (more than 50% control value) | H (more than 50% control value) | L (50% or less control value) | H (more than 50% control value) | H (more than 50% control value) | H (more than 50% control value) |  |  |  |  |  |  |  |  | 
CCn1c(-c2c(F)cc(F)cc2F)c(C(Cl)C(C)(C)C)cc(Cl)c1=O (racemic) [compound 172] | H (more than 50% control value) | H (more than 50% control value) | H (more than 50% control value) | H (more than 50% control value) | H (more than 50% control value) | H (more than 50% control value) | H (more than 50% control value) | H (more than 50% control value) |  |  |  |  |  |  |  |  | 
CCn1c(-c2c(F)cc(F)cc2F)c(C(C)(O)C(C)(C)C)cc(Cl)c1=O (racemic) [compound 174] | L (50% or less control value) | H (more than 50% control value) | H (more than 50% control value) | H (more than 50% control value) | L (50% or less control value) | H (more than 50% control value) | H (more than 50% control value) | L (50% or less control value) |  |  |  |  |  |  |  |  | 
CCn1c(-c2c(F)cc(OC)cc2F)c(C(C)(O)C(C)(C)C)cc(Cl)c1=O (racemic) [compound 180] | L (50% or less control value) | H (more than 50% control value) | L (50% or less control value) | H (more than 50% control value) | L (50% or less control value) | H (more than 50% control value) | L (50% or less control value) | L (50% or less control value) |  |  |  |  |  |  |  |  | 
CCn1c(-c2c(F)cccc2F)c(C(C)(F)C(C)C)cc(Cl)c1=O (racemic) [compound 184] | H (more than 50% control value) | H (more than 50% control value) | H (more than 50% control value) | H (more than 50% control value) | L (50% or less control value) | H (more than 50% control value) | H (more than 50% control value) | H (more than 50% control value) |  |  |  |  |  |  |  |  | 
CCOC(C)(c1cc(Cl)c(=O)n(CC)c1-c1c(F)cccc1F)C(C)C (racemic) [compound 188] |  |  |  |  |  |  |  |  |  |  |  |  |  |  |  |  | Test G control value ([1]; Downy mildew on vine, 250 ppm spray): H (more than 50% control value); Test C control value ([2]; Alternaria sooty spot on cabbage, control value class): H (more than 50% control value); Test D control value ([3]; Powdery mildew on barley, control value class): H (more than 50% control value); Test B control value ([4]; Gray mold on tomato, control value class): H (more than 50% control value); Test F control value ([5]; Late blight on tomato, control value class): H (more than 50% control value); Test A control value ([6]; Blast on rice, control value class): H (more than 50% control value); Test E control value ([7]; Brown rust on wheat, control value class): H (more than 50% control value); Test H control value ([8]; Anthracnose on cucumber, 250 ppm spray): H (more than 50% control value)
CCC(O)c1ccc(=O)n(CC)c1-c1c(F)cc(F)cc1F (racemic) [compound 469] |  |  |  |  |  |  |  |  |  |  |  |  |  |  |  |  | Test G control value ([1]; 250 ppm drug solution sprayed (2.5 ml/pot), grape Neomuscat): L (50% or less control value); Test C control value [2, 10]: H (more than 50% control value); Test D control value [3, 10]: L (50% or less control value); Test B control value [4, 10]: H (more than 50% control value); Test F control value [5, 10]: L (50% or less control value); Test A control value [6, 10]: L (50% or less control value); Test E control value [7, 10]: L (50% or less control value); Test H control value ([8]; 250 ppm drug solution sprayed (2.5 ml/pot), cucumber Sagami Hanjiro): H (more than 50% control value)
CCn1c(-c2c(F)cccc2F)c(C)ccc1=O [Compound No. 1, 6-(2,6-difluorophenyl)-1-ethyl-5-methylpyridin-2(1H)-one] |  |  |  |  |  |  |  |  | < 50 | < 50 | < 50 | < 50 | < 50 | > 50 | < 50 | < 50 | 
CCn1c(-c2c(F)cccc2F)c(C)cc(Cl)c1=O [Compound No. 2, 3-chloro-6-(2,6-difluorophenyl)-1-ethyl-5-methylpyridin-2(1H)-one] |  |  |  |  |  |  |  |  | < 50 | < 50 | > 50 | < 50 | > 50 | > 50 | < 50 | > 50 | 
CCn1c(-c2c(F)cc(F)cc2F)c(C(C)C)ccc1=O [Compound No. 7, 1-ethyl-5-isopropyl-6-(2,4,6-trifluorophenyl)pyridin-2(1H)-one] |  |  |  |  |  |  |  |  | > 50 | > 50 | > 50 | > 50 | < 50 | > 50 | > 50 | > 50 | 
CCn1c(-c2c(F)cc(F)cc2F)c(C(C)C)cc(Cl)c1=O [Compound No. 8, 3-chloro-1-ethyl-5-isopropyl-6-(2,4,6-trifluorophenyl)pyridin-2(1H)-one] |  |  |  |  |  |  |  |  | < 50 | > 50 | > 50 | > 50 | < 50 | > 50 | > 50 | > 50 | 
CCn1c(-c2c(F)cc(OC)cc2F)c(C(C)C)ccc1=O [Compound No. 10, 6-(2,6-Difluoro-4-methoxyphenyl)-1-ethyl-5-isopropylpyridin-2(1H)-one] |  |  |  |  |  |  |  |  | < 50 | > 50 | > 50 | > 50 | < 50 | > 50 | > 50 | > 50 | 
CCn1c(-c2c(F)cc(OC)cc2F)c(C(C)C)cc(Cl)c1=O [Compound No. 11, 3-Chloro-6-(2,6-difluoro-4-methoxyphenyl)-1-ethyl-5-isopropylpyridin-2(1H)-one] |  |  |  |  |  |  |  |  | < 50 | > 50 | > 50 | > 50 | < 50 | > 50 | > 50 | > 50 | 
